Assays:
mouse MC38 cancer cells = assay: MC38 tumor growth in mice, combination of CORT125134 and anti PD-1; format: in vivo; conditions: CORT125134 30 mg/kg orally daily in combination with mouse anti PD-1 antibody (clone RPM1-14, 10 mg/kg) i.p. twice a week; C57BL/6 mice, s.c. MC38 tumors; FIG. 1
Procedure: Suspensions of mouse MC38 cancer cells were injected subcutaneously into the left flank of 5-6 week old immunocompetent female mice (C57BL/6), 1 million cells per mouse. Tumors were allowed to grow until they reach a volume of 100 mm^3. Mice were then grouped into three groups, ten (10) per group. Group I was dosed with the anti-PD-1 vehicle (PBS, 10 ml/kg) i. p. twice a week and the CORT125134 vehicle p.o. (10% DMSO, 0.1% Tween 80 and 89.9% HPMC (0.5%), 10 ml/kg) daily. Group II was dosed with the mouse anti PD-1 antibody (clone RPM1-14, 10 mg/kg) i. p. twice a week. Group III was dosed with the mouse anti PD-1 antibody (clone RPM1-14, 10 mg/kg) i. p. twice a week and CORT125134 (a SGRM) (30 mg/kg) orally on a daily basis. The longest (L) and shortest (S) diameters of the tumors were measured three times a week with electronic calipers and tumor volume was calculated using the formula for an ellipsoid sphere: S^2×L×(0.5). The tumor growth data are shown in FIG. 1, in which the mean tumor volume as compared to the mean pre-dosing tumor volume for each group of mice is plotted against the number of days of tumor growth since initiation of the treatment.

mouse CT26 cancer cells = assay: CT26 tumor growth in mice, combination of CORT125134 or CORT125281 and anti CTLA4; format: in vivo; conditions: SGRM 30 mg/kg orally daily in combination with mouse anti CTLA4 antibody (clone 9D9, 10 mg/kg) i.p. twice a week; C57BL/6 mice, s.c. CT26 tumors; FIG. 3
Procedure: Suspensions of mouse CT26 cancer cells were injected subcutaneously into the left flank of 6-7 week old immunocompetent female mice (C57BL/6), ½ million cells per mouse. Tumors were allowed to grow until they reached a volume of 50-100 mm^3. Mice were then grouped into three groups, ten (10) per group. Group I was dosed with the anti-CTLA4 vehicle (PBS, 10 ml/kg) i. p. twice a week and the CORT125134 vehicle p.o. (10% DMSO, 0.1% Tween 80 and 89.9% HPMC (0.5%), 10 ml/kg) daily. Group II was dosed with the mouse anti CTLA4 antibody (clone 9D9, 10 mg/kg) i. p. twice a week. Group III was dosed with the mouse anti CTLA4 antibody (clone 9D9, 10 mg/kg) i. p. twice a week and CORT125134 (a SGRM) (30 mg/kg) orally on a daily basis. Group IV was dosed with the mouse anti CTLA4 antibody (clone 9D9, 10 mg/kg) i. p. twice a week and CORT125281 (a SGRM) (30 mg/kg) orally on a daily basis.
(§1) The longest (L) and shortest (S) diameters of the tumors were measured three times a week with electronic calipers and tumor volume was calculated using the formula for an ellipsoid sphere: S^2×L×(0.5). The tumor growth data are shown in FIG. 3, in which the mean tumor volume for each group is plotted against the number of days of tumor growth since initiation of the treatment.

breast cancer = assay: Treating a breast cancer patient with the combination therapy (tumor load by enhanced magnetic resonance imaging); format: in vivo, human; conditions: CORT125134 200 mg once a day for eight weeks with pembrolizumab 3 mg/kg every 2 weeks
Procedure: A patient suffering from breast cancer is treated with pembrolizumab at a dose of 3 mg/kg every 2 weeks and CORT125134 at a dose of 200 mg once a day for eight weeks. Their tumor load is monitored using enhanced magnetic resonance imaging before, during and after the treatment.

mouse A20 cancer cells = assay: A20 tumor growth in mice, combination of CORT125281 and anti PD-1; format: in vivo; conditions: CORT125281 30 mg/kg orally daily in combination with mouse anti PD-1 antibody (clone RPM1-14, 10 mg/kg) i.p. twice a week; C57BL/6 mice, s.c. A20 tumors; FIG. 2
Procedure: Suspensions of mouse A20 cancer cells were injected subcutaneously into the left flank of 5-6 week old immunocompetent female mice (C57BL/6), ½ million cells per mouse. Tumors were allowed to grow until they reached a volume of 100 mm^3. Mice were then grouped into three groups, ten (10) per group. Group I was dosed with the anti-PD-1 vehicle (PBS, 10 ml/kg) i. p. twice a week and the CORT125281 vehicle p.o. (10% DMSO, 0.1% Tween 80 and 89.9% HPMC (0.5%), 10 ml/kg) daily. Group II was dosed with the mouse anti PD-1 antibody (clone RPM1-14, 10 mg/kg) i. p. twice a week. Group III was dosed with the mouse anti PD-1 antibody (clone RPM1-14, 10 mg/kg) i. p. twice a week and CORT125281 (a SGRM) (30 mg/kg) orally on a daily basis.
as §1, with “2,” for “3,”, “group of mice” for “group”

Structure (SMILES) | reducing tumor growth (mean tumor volume as compared to the mean pre-dosing tumor volume) (mouse MC38 cancer cells) | reducing tumor growth (mean tumor volume) (mouse CT26 cancer cells) | reduction of the size of the tumor at the end of the treatment period (breast cancer) | reducing tumor growth (mean tumor volume) (mouse A20 cancer cells)
Cn1cc(S(=O)(=O)N2CCC3=Cc4c(cnn4-c4ccc(F)cc4)C[C@]3(C(=O)c3cc(C(F)(F)F)ccn3)C2)cn1 [CORT125134, (R)-(1-(4-fluorophenyl)-6-((1-methyl-1H-pyrazol-4-yl)sulfonyl)-4,4a,5,6,7,8-hexahydro-1H-pyrazolo[3,4-g]isoquinolin-4a-yl)(4-(trifluoromethyl)pyridin-2-yl)methanone] | superior to both the anti PD-1 group and the vehicle group in reducing tumor growth | superior to both the anti CTLA4 group and the vehicle group in reducing tumor growth | more than 20% | –
Cn1ncc(S(=O)(=O)N2CC[C@H]3Cc4c(cnn4-c4ccc(F)cc4)C[C@]3(C(=O)c3cc(C(F)(F)F)ccn3)C2)n1 [CORT125281, ((4aR,8aS)-1-(4-fluorophenyl)-6-((2-methyl-2H-1,2,3-triazol-4-yl)sulfonyl)-4,4a,5,6,7,8,8a,9-octahydro-1H-pyrazolo[3,4-g]isoquinolin-4a-yl)(4-(trifluoromethyl)pyridin-2-yl)methanone] | – | superior to both the anti CTLA4 group and the vehicle group in reducing tumor growth | – | superior to both the anti PD-1 group and the vehicle group in reducing tumor growth

From patent US12171760B2, “Use of glucocorticoid receptor modulators to potentiate checkpoint inhibitors” (Corcept Therapeutics Incorporated, priority 2016, dated 2024)
